The values below come from patent publication US8569362B2, “Polyketide molecules as anticancer agents” (Pierre Fabre Medicament, priority 2009, dated 2013).

Type in all cases: cell-based
In assay [1] the test system is A549 (non small cell lung cancer). Nature of the assay: Growth inhibition of human cancer cell lines, ATP-lite luminescence, A549. The conditions noted are these: A549, 48 h incubation, cell survival by ATP luminescence. On the procedure:
(§1) The cancerous cells [lines A549 (non small cell lung cancer), BxPC3 (cancer of the pancreas), LoVo (colon cancer), MCF7 (breast cancer), Namalwa (Burkitt's lymphoma) and SK-OV-3 (ovarian cancer)] were cultured in a 96-well plate in RPMI 1640 medium without phenol red (Seromed) to which was added 10% of foetal veal serum (100 μl/well, 1 to 3.10^4 cells/ml depending on the considered line). After an incubation of 24 h at 37° C. in an incubator with 5% CO2, the medium was replaced by that containing the compound to be tested (molecule I-1), after which the plates were incubated for an additional 48 h. Cell survival was evaluated by measurement of the luminescence after release of ATP in the medium using the cell lysis solutions, luciferase and luciferine contained in the ATP-lite-MTM kit, as recommended by the manufacturer (Packard, Rungis, France). Each experimental condition was tested at least three times in sextuplets. The table below presents the IC50 data (expressed in M) of the molecule I-1, as a function of the different cell lines tested.

The subject of assay [2] is BxPC3 (cancer of the pancreas). In words: Growth inhibition of human cancer cell lines, ATP-lite luminescence, BxPC3. To be noted: BXPC-3, BxPC3, 48 h incubation, cell survival by ATP luminescence. Here is the method:
as §1

Another assay relates to MCF7 (breast cancer). In words: Growth inhibition of human cancer cell lines, ATP-lite luminescence, MCF7. To be noted: MCF7, 48 h incubation, cell survival by ATP luminescence. On the procedure:
as §1

Assay [3] concerns HeLa tumoral cells (human carcinoma). Nature of the assay: Cellular phenotype (immunofluorescence and microscopy; α-tubulin, γ-tubulin, DAPI). The conditions noted are these: 24 h treatment. On the procedure: The HeLa tumoral cells (human carcinoma) were cultured for 24 h on 12 mm diameter glass slides, placed in 24-well culture plates (7.10^3 cells per well).
The cells were then treated for a new period of 24 h by the molecule I-1 at the tested concentrations. […] The DNA was labelled with DAPI (0.2 μg/ml—15 minutes—37° C.). After the different labellings, the slides were dried and mounted in a Vectashield mounting liquid (AbCys, France), before being observed through an epi-fluorescence microscope (Axiovert 200M; objective×63 Plan Apochromat NA, 1.4; ZEISS, France).

Assay [4] deals with Namalwa (Burkitt's lymphoma). Nature of the assay: Growth inhibition of human cancer cell lines, ATP-lite luminescence, Namalwa. To be noted: 48 h incubation, cell survival by ATP luminescence. On the procedure: as §1
For the next assay, the system named is LoVo (colon cancer). In words: Growth inhibition of human cancer cell lines, ATP-lite luminescence, LoVo. To be noted: 48 h incubation, cell survival by ATP luminescence. On the procedure:
as §1

The subject of a further assay is SK-OV-3 (ovarian cancer). In words: Growth inhibition of human cancer cell lines, ATP-lite luminescence, SK-OV-3. The conditions noted are these: SK-OV-3, 48 h incubation, cell survival by ATP luminescence. On the procedure: as §1

In the case of `COC(CCC(C)C1(O)CC(C(C)/C=C(C)/C=C(\C)C(O)C(C)C(O)C(C)C(OC)C(C)/C=C/C=C/C=C/C(=O)O)OC(=O)C1O)CC(CC(O)C(C)C/C=C/C(C)C1CC(C(C)CCC(C)O)C(O)C(=O)O1)OC` (stereo not shown) [molecule I-1], the half-maximal inhibitory concentration (IC50) was determined as 0.82 nM in assay [1]; 0.47 nM in assay [2]; 0.011 nM with MCF7 (breast cancer); 1.1 nM in assay [4]; 0.081 nM in the assay on LoVo (colon cancer); 0.33 nM in the assay on SK-OV-3 (ovarian cancer). Further, the “Centrosomes of interphasic cells (γ-tubulin labelling)” value in assay [3] (between 5.10^−9M and 5.10^−8M) was “often separated and normally labelled by γ-tubulin”. Further, in assay [3] (between 5.10^−9M and 5.10^−8M), the “Microtubular cytoskeleton of interphasic cells (labelling by α-tubulin)” value is given as “devoid of microtubular cytoskeleton”. Further, the “Centrosomes of mitotic cells (γ-tubulin labelling)” value in assay [3] (between 10^−9M and 5.10^−8M) is “normally present and labelled by γ-tubulin”. For the same molecule, the “Mitotic cells: mitotic block and microtubules (α-tubulin labelling)” value in assay [3] (dose effect between 10^−9M and 5.10^−8M) was “blocked in prometaphase without microtubules”.
